From patent publication US11179363B2, “Non-steroidal selective glucocorticoid receptor agonistic modulators (SEGRAMs) and uses thereof” (ASSOCIATION POUR LA RECHERCHE À L'IGBMC (ARI), priority 2017, dated 2021)
Values belong to the compound of their own block, whether it stands above or below them.

Key:
[1] = system: HDM-induced asthma-like allergic lung inflammation; assay: House dust mite (HDM)-induced asthma-like allergic lung inflammation; assay type: in vivo, mice
Protocol: Glucocorticoids have been (Pearlman et al., 1997. Ann Allergy Asthma Immunol. 78(4):356-62), and are still, widely used in asthma therapy. In order to investigate the possible CpdX anti-inflammatory activity in vivo, mice were sensitized and challenged with either ovalbumin (OVA) or house dust mite (HDM) to induce an asthma-like allergic lung inflammation.
Mice were intranasally sensitized with 1 μg HDM from D0 to D4, and further intranasally sensitized with 10 μg HDM on D14 and D21. Mice were then subdivided into eight groups, and on D29, D30 and D31, each mouse was again intranasally challenged with […]. The first seven groups received respectively 0.5 mg/kg of body weight of Dex, CpdX, CpdX(eA), CpdX(eB), CpdX-D3, CpdX-D3(eA) or CpdX-D3(eB), while the eighth group served as a control.
On D32, the airway responsiveness was invasively determined using a computer-controlled small animal ventilator (FlexVent® system, SCIREQ Technologies). Mice were anesthetized with xylazine (15 mg/kg, i.p.), followed 15 minutes later by an i.p. injection of pentobarbital sodium (54 mg/kg). An 18-gauge metal needle was then inserted into the trachea, each mouse was connected to the FlexVent® ventilator and quasi-sinusoidally ventilated with a tidal volume of 10 mL/kg at a frequency of 150 breaths/minute and a positive end-expiratory pressure of 2 cm H2O, in order to achieve a mean lung volume close to spontaneous breathing. After baseline measurement, mice were challenged for 10 seconds with a saline aerosol and, at 4.5-minute intervals, with 50 mg/mL methacholine. Airway resistance and elastance were expressed as cmH2O.s/mL and cmH2O/mL respectively.
The lung allergic inflammation was assessed by examination of the bronchoalveolar lavage (BAL) fluid from each of these HDM-challenged mice. The total BAL cells, eosinophils, neutrophils, macrophages and lymphocytes were counted. RNA transcripts were extracted from lung samples. RNA transcripts of IL-1β, IL-6, IL-4, IL-5, IL-13, Eotaxin, CCL4, IL-10 and TNFα were analyzed by q-RT-PCR. Lung tissues were harvested and histological (with H&E staining) and immunohistochemical analyses were also carried out (with eosinophil-specific and neutrophil-specific antibodies).

[2] = system: TPA-induced irritant contact dermatitis-like inflammation; assay: TPA-induced irritant contact dermatitis-like inflammation of mouse ears; assay type: in vivo, Balb/C mouse; conditions: for TPA-induced ear skin inflammation, histological analysis: H&E, vs control; for TPA-induced ear skin inflammation, histological analysis / expression of TSLP in TPA-treated mouse epidermis (immunochemistry): data not shown; for expression of TSLP in TPA-treated mouse epidermis (immunochemistry): TSLP-specific antibody; for TPA-induced transcription of pro-inflammatory genes (CCL4, COX2, MMP13, IL-1β, IL-6, TNF-α, TSLP, IL-22, IL-23): ear extracts, q-RT-PCR, D10; for TPA-induced skin inflammation: topical 1 nmole/cm^2, 5 days co-treatment with TPA
Protocol: Balb/C mouse ears were topically treated with TPA to induce an “irritant contact dermatitis-like inflammation”. Mice were treated for 4 days with TPA, then for 5 extra days (until D9) with either vehicle, TPA alone, TPA and Dex, TPA and CpdX or TPA and CpdX-D3. At D10, RNA transcripts were extracted from mouse ear skin samples and the transcripts of CCL4, COX2, MMP13, IL-1β, IL-6, TNF-α, TSLP, IL-22 and IL-23 were analyzed by q-RT-PCR. Ear skin was harvested, and histological (with H&E staining) and immunohistochemical (with anti-TSLP antibodies) analyses were carried out.

[3] = system: MC 903-induced atopic dermatitis (AD)-like inflammation; assay: Calcipotriol (MC 903)-induced atopic dermatitis-like inflammation of mouse ears; assay type: in vivo, Balb/C mouse; conditions: for MC 903-induced ear skin inflammation, histological analysis: H&E, vs control; for expression of the TSLP lymphokine in MC 903-treated mouse epidermis (immunohistochemistry): data not shown; for MC 903-induced transcription of pro-inflammatory genes (MMP13, COX2, IL-1β, IL-6, IL-10, IL-13 and TSLP): ear extracts, q-RT-PCR, D23; for MC 903-induced skin inflammation: topical 1 nmole/cm^2, 8 days co-treatment with MC 903
Protocol: To investigate the CpdX anti-inflammatory activity in vivo, Balb/C mouse ears were topically treated with calcipotriol (MC 903, a vitamin D3 analogue), in order to induce an atopic dermatitis (AD)-like inflammation (Li et al., 2006. Proc Natl Acad Sci USA. 103(31):11736-41).
Mice were treated for 14 days with MC 903, and then for 8 extra days (until D22) with either MC 903 alone (control), MC 903 and Dex, MC 903 and CpdX, MC 903 and CpdX(eA), MC 903 and CpdX(eB), MC 903 and CpdX-D3, MC 903 and CpdX-D3(eA) and MC 903 and CpdX-D3(eB).
At D23, RNA transcripts were extracted from mouse ear skin samples and the transcripts of 7 cytokines (MMP13, COX2, IL-1β, IL-6, IL-10, IL-13 and TSLP) were analyzed by q-RT-PCR. Ear skin was harvested and histological (with H&E staining) and immunohistochemical (with anti-TSLP antibodies) analyses were carried out.

[4] = system: Aldara-induced psoriasis-like skin inflammation; assay: Aldara-induced psoriasis-like skin inflammation of mouse ears; assay type: in vivo, Balb/C mouse; conditions: for Aldara-induced psoriasis-like skin inflammation, histological analyses: H&E staining; for induced expression of the Th17 cytokines IL-17a, IL-17c, IL-17f and IL-22: ear extracts, q-RT-PCR, D10; for Aldara-induced psoriasis-like skin inflammation: topical 1 nmole/cm^2, last 5 days of 9 days Aldara
Protocol: Balb/C mouse ears were topically treated with Aldara® to induce a psoriasis-like skin inflammation ([…] et al., 2015. Br J Dermatol. 172(2):345-53). Mice were treated for 9 days with Aldara®, including a co-topical treatment for the last 5 days with either ethanol (Vehicle), Dex, CpdX or CpdX-D3. At D10, RNA transcripts were extracted from mouse ears and IL-17a, IL-17c, IL-17f and IL-22 transcripts were analyzed by q-RT-PCR. Ear skin samples were also harvested for histological analyses (with H&E staining).

[5] = Body weight and body composition after three-month treatment (pDEXA); assay type: in vivo, B6 male mice; conditions: s.c. 1 mg/kg daily, 3 months, pDEXA
Protocol: B6 male mice (8-week-old) were daily subjected for three months to a subcutaneous injection of either vehicle (NaCl 0.9%), Dex, CpdX or CpdX-D3 (1 mg/kg body weight, diluted in vehicle. A pDEXA machine was used to determine the lean mass and fat mass. The statistical significance was calculated through Krustal-Walis test followed by a Dunn's multiple comparison test, *p<0.05; **p<0.01; ***p<0.001.

liver = assay: Fatty liver after three-month treatment (red oil staining, q-RT-PCR, plasma cholesterol and bile acids); assay type: in vivo, B6 male mice; conditions: s.c. 1 mg/kg daily, three months
Protocol: B6 male mice (8-week-old) were daily subjected for three months to a subcutaneous injection of either vehicle (NaCl 0.9%), Dex, CpdX, CpdX(eA), CpdX(eB), CpdX-D3, CpdX-D3(eA) or CpdX-D3(eB) (1 mg/kg body weight, diluted in vehicle). Following this treatment, blood was collected at 10 a.m. by retro-orbital puncture in lithium-heparin coated vials. The plasmatic levels of total cholesterol and bile acids were determined.
Liver samples were harvested. […] RNA transcripts were extracted from liver samples and the transcripts of fatty acid synthase (FASN) and Stearoyl-CoA desaturase 1 (SCD1) genes were analyzed by q-RT-PCR.

[6] = HDM model, 0.5 mg/kg, D32, vs control group; 0.5 mg/kg
[7] = HDM model, lung paraffin sections
[8] = methacholine 50 mg/mL, FlexVent
[9] = HDM model, 0.5 mg/kg, D32, vs control group

SMILES: COc1ccc(F)cc1C(C)(C)CC(O)(CNc1ccc2c(c1)COC2=O)C(F)(F)F (single isomer, unassigned; enantiomer a) [CpdX(eA), 5-[4-(5-fluoro-2-methoxyphenyl)-2-hydroxy-4-methyl-2-(trifluoromethyl)-pentylamino]isobenzofuran-1(3H)-one enantiomer A]
total number of BAL cells, eosinophils and lymphocytes [1, 6]: efficiently decreased | peribronchiolar and perivascular inflammatory cell infiltration (histology) [1, 7]: decreased | lung expression of pro-inflammatory genes (IL-1β, IL-6, IL-4, IL-5, IL-13, Eotaxin, CCL4) ([1]; HDM model, q-RT-PCR): efficiently decreased | HDM-induced airway hyperresponsiveness (AHR), airway resistance and elastance [1, 8]: reduced

SMILES: [2H]C([2H])([2H])Oc1ccc(F)cc1C(C)(C)CC(O)(CNc1ccc2c(c1)COC2=O)C(F)(F)F (single isomer, unassigned; enantiomer a) [CpdX-D3(eA), 5-{4-[2-(methoxy-D3)-5-fluorophenyl]-2-hydroxy-4-methyl-2-(trifluoromethyl)pentylamino}isobenzofuran-1(3H)-one enantiomer A]
total number of BAL cells, eosinophils and lymphocytes [1, 6]: efficiently decreased | peribronchiolar and perivascular inflammatory cell infiltration (histology) [1, 7]: decreased | lung expression of pro-inflammatory genes (IL-1β, IL-6, IL-4, IL-5, IL-13, Eotaxin, CCL4) ([1]; HDM model, q-RT-PCR): efficiently decreased

lipid deposition in the liver (5% red oil staining) (liver): not observed
SMILES: [2H]C([2H])([2H])Oc1ccc(F)cc1C(C)(C)CC(O)(CNc1ccc2c(c1)COC2=O)C(F)(F)F (racemic) [CpdX-D3, 5-{4-[2-(methoxy-D3)-5-fluorophenyl]-2-hydroxy-4-methyl-2-(trifluoromethyl)pentylamino}isobenzofuran-1(3H)-one]
TPA-induced ear skin inflammation, histological analysis [2]: significantly decreased | expression of TSLP in TPA-treated mouse epidermis (immunochemistry) [2]: similarly strongly decreased | TPA-induced transcription of pro-inflammatory genes (CCL4, COX2, MMP13, IL-1β, IL-6, TNF-α, TSLP, IL-22, IL-23) [2]: repressed, as efficiently as Dex | TPA-induced skin inflammation [2]: significantly decreased | MC 903-induced ear skin inflammation, histological analysis [3]: decreased | expression of the TSLP lymphokine in MC 903-treated mouse epidermis (immunohistochemistry) [3]: similarly strongly decreased | MC 903-induced transcription of pro-inflammatory genes (MMP13, COX2, IL-1β, IL-6, IL-10, IL-13 and TSLP) [3]: repressed, as efficiently as Dex | MC 903-induced skin inflammation [3]: significantly decreased | number of neutrophils and macrophages in BAL ([1]; HDM model, 0.5 mg/kg, D32): No significant change | total number of BAL cells, eosinophils and lymphocytes [1, 9]: significantly decreased | eosinophils in lung (immunohistochemistry, eosinophil-specific antibodies) ([1]; HDM model, data not shown): decreased | lung expression of IL-10 and TNFα ([1]; HDM model, data not shown): not affected | neutrophils in lung (immunohistochemistry, neutrophil-specific antibody) ([1]; HDM model, data not shown): no significant change | peribronchiolar and perivascular inflammatory cell infiltration (histology) [1, 7]: strongly decreased | lung expression of pro-inflammatory genes (IL-1β, IL-6, IL-4, IL-5, IL-13, Eotaxin, CCL4) ([1]; HDM model, q-RT-PCR): significantly and similarly decreased | HDM-induced airway hyperresponsiveness (AHR), airway resistance and elastance [1, 8]: similarly reduced | Aldara-induced psoriasis-like skin inflammation, histological analyses [4]: could reduce | induced expression of the Th17 cytokines IL-17a, IL-17c, IL-17f and IL-22 [4]: similarly reduced | Aldara-induced psoriasis-like skin inflammation [4]: significantly decreased | fat mass / fat percentage, change from baseline [5]: commensurate increase | lean mass / lean percentage, change from baseline [5]: commensurate increase

lipid deposition in the liver (5% red oil staining) (liver): not observed
SMILES: COc1ccc(F)cc1C(C)(C)CC(O)(CNc1ccc2c(c1)COC2=O)C(F)(F)F (racemic) [CpdX, 5-[4-(5-fluoro-2-methoxyphenyl)-2-hydroxy-4-methyl-2-(trifluoromethyl)pentylamino]-isobenzofuran-1(3H)-one]
TPA-induced ear skin inflammation, histological analysis [2]: significantly decreased | expression of TSLP in TPA-treated mouse epidermis (immunochemistry) [2]: similarly strongly decreased | TPA-induced transcription of pro-inflammatory genes (CCL4, COX2, MMP13, IL-1β, IL-6, TNF-α, TSLP, IL-22, IL-23) [2]: repressed, as efficiently as Dex | TPA-induced skin inflammation [2]: significantly decreased | MC 903-induced ear skin inflammation, histological analysis [3]: decreased | expression of the TSLP lymphokine in MC 903-treated mouse epidermis (immunohistochemistry) [3]: similarly strongly decreased | MC 903-induced transcription of pro-inflammatory genes (MMP13, COX2, IL-1β, IL-6, IL-10, IL-13 and TSLP) [3]: repressed, as efficiently as Dex | MC 903-induced skin inflammation [3]: significantly decreased | number of neutrophils and macrophages in BAL ([1]; HDM model, 0.5 mg/kg, D32): No significant change | total number of BAL cells, eosinophils and lymphocytes [1, 9]: significantly decreased | eosinophils in lung (immunohistochemistry, eosinophil-specific antibodies) ([1]; HDM model, data not shown): decreased | lung expression of IL-10 and TNFα ([1]; HDM model, data not shown): not affected | neutrophils in lung (immunohistochemistry, neutrophil-specific antibody) ([1]; HDM model, data not shown): no significant change | peribronchiolar and perivascular inflammatory cell infiltration (histology) [1, 7]: strongly decreased | lung expression of pro-inflammatory genes (IL-1β, IL-6, IL-4, IL-5, IL-13, Eotaxin, CCL4) ([1]; HDM model, q-RT-PCR): significantly and similarly decreased | HDM-induced airway hyperresponsiveness (AHR), airway resistance and elastance [1, 8]: similarly reduced | Aldara-induced psoriasis-like skin inflammation, histological analyses [4]: could reduce | induced expression of the Th17 cytokines IL-17a, IL-17c, IL-17f and IL-22 [4]: similarly reduced | Aldara-induced psoriasis-like skin inflammation [4]: significantly decreased | fat mass / fat percentage, change from baseline [5]: commensurate increase | lean mass / lean percentage, change from baseline [5]: commensurate increase
